Laboratory results taken from article PMC5855875, “Teixobactin analogues reveal enduracididine to be non-essential for highly potent antibacterial activity and lipid II binding” (Chemical Science, 2017).
Bridge positions count the residues as written; N and C are the ends. Square brackets hold non-standard residues; d marks the D form. Peptide text beside a SMILES is read from it. d(aIle) = CC[C@H](C)[C@@H](N)C(=O)O; dNMeF = CN[C@H](Cc1ccccc1)C(=O)O

Each molecule was assayed on MRSA ATCC 33591 (assay: microbe, parasite or virus in culture). Details: ATCC 33591, 24 h.
Description: were grown in Mueller Hinton broth (Oxoid) in triplicate. All incubations were at 37°C. Dilutions were carried out in triplicate. 100 µl of autoclaved Mueller Hinton broth was added to wells 2-12 in a 96-well plate. 200 µl of the peptide was added to well one at a concentration of 256 µg/mL. 100µl of peptide in well one was taken up and pipetted into well two. The mixture was then mixed via pipetting before 100µl was taken up and pipetted into well three. This process was repeated up to well 11. Once […]
peptide present. Thus, the concentrations (in µg/mL) were: 256, 128, 64, 32, 16, 8, 4, 2, 1, 0.5, 0.25 and no peptide present. Each well was then inoculated with 100µl of bacteria that had been diluted to an […]
This was repeated three times. The 96-well plates were then incubated at 37°C for 24 hours. The MIC was determined to be the lowest concentration at which there was no growth visible. […]
was repeated at an altered initial concentration of 64 µg/ml. Therefore, the new concentrations for MIC […]
VIII. MIC testing (extended panel)
Bacterial cultures were grown overnight i n Mueller-Hinton Agar (MHA) plates and adjusted to a final concentration of 10 5 – 106 CFU/ml. 100 µl of inoculum in Meuller -Hinton broth (MHB) was mixed with equal volume of peptides (dissolved in MHB) at 2x their concentration in a 96 well plate. In parallel experiments, MIC values were determined in the media containing polysorbate 80 (0 .002%, v/v) to […]

Structure (SMILES) | MIC
CC[C@H](C)[C@H](NC(=O)[C@@H](Cc1ccccc1)NC)C(=O)N[C@@H](CO)C(=O)N[C@H](CCC(N)=O)C(=O)N[C@@H](C(=O)N[C@@H](C)C(=O)N[C@@H](CO)C(=O)N[C@H]1C(=O)N[C@@H](C)C(=O)N[C@@H](CCCNC(=N)N)C(=O)N[C@@H]([C@@H](C)CC)C(=O)O[C@H]1C)[C@@H](C)CC [Compound 6, Ala6-Arg10-teixobactin] (H-[dNMeF]IS[dQ][d(aIle)]AS[dT]ARI; ester 8-C) | >128 μg mL^–1
CC[C@H](C)[C@H](NC(=O)[C@@H](C)NC(=O)[C@@H](CCC(N)=O)NC(=O)[C@H](CO)NC(=O)[C@@H](NC(=O)[C@@H](Cc1ccccc1)NC)[C@@H](C)CC)C(=O)N[C@@H](CO)C(=O)N[C@H]1C(=O)N[C@@H](C)C(=O)N[C@@H](CCCNC(=N)N)C(=O)N[C@@H]([C@@H](C)CC)C(=O)O[C@H]1C [Compound 5, D-Ala5-Arg10-teixobactin] (HELM PEPTIDE1{[CN[C@H](Cc1ccccc1)C(=O)[*:2]].I.S.[dQ].[dA].I.S.[C[C@H](O[*:3])[C@@H](N[*:1])C(=O)[*:2]].A.R.I}$PEPTIDE1,PEPTIDE1,8:R3-11:R2$$$V2.0) | 64–128 μg mL^–1
CC[C@H](C)[C@H](NC(=O)[C@@H](Cc1ccccc1)NC)C(=O)N[C@@H](CO)C(=O)N[C@H](CCC(N)=O)C(=O)N[C@@H](C(=O)N[C@H](C(=O)N[C@@H](CO)C(=O)N[C@H]1C(=O)N[C@@H](C)C(=O)NCC(=O)N[C@@H]([C@@H](C)CC)C(=O)O[C@H]1C)[C@@H](C)CC)[C@@H](C)CC [Compound 10, Gly10-teixobactin] (H-[dNMeF]IS[dQ][d(aIle)]IS[dT]AGI; ester 8-C) | 2 μg mL^–1
CC[C@H](C)[C@H](NC(=O)[C@@H](Cc1ccccc1)NC)C(=O)N[C@@H](C)C(=O)N[C@H](CCC(N)=O)C(=O)N[C@@H](C(=O)N[C@H](C(=O)N[C@@H](CO)C(=O)N[C@H]1C(=O)N[C@@H](C)C(=O)N[C@@H](CCCNC(=N)N)C(=O)N[C@@H]([C@@H](C)CC)C(=O)O[C@H]1C)[C@@H](C)CC)[C@@H](C)CC [Compound 3, Ala3-Arg10-teixobactin] (H-[dNMeF]IA[dQ][d(aIle)]IS[dT]ARI; ester 8-C) | 1–2 μg mL^–1
CC[C@H](C)[C@H](NC(=O)[C@@H](Cc1ccccc1)NC)C(=O)N[C@@H](CO)C(=O)N[C@H](CCC(N)=O)C(=O)N[C@@H](C(=O)N[C@H](C(=O)N[C@@H](C)C(=O)N[C@H]1C(=O)N[C@@H](C)C(=O)N[C@@H](CCCNC(=N)N)C(=O)N[C@@H]([C@@H](C)CC)C(=O)O[C@H]1C)[C@@H](C)CC)[C@@H](C)CC [Compound 7, Ala7-Arg10-teixobactin] (H-[dNMeF]IS[dQ][d(aIle)]IA[dT]ARI; ester 8-C) | 16–32 μg mL^–1
CC[C@H](C)[C@H](NC(=O)[C@@H](Cc1ccccc1)NC)C(=O)N[C@@H](CO)C(=O)N[C@H](CCC(N)=O)C(=O)N[C@@H](C(=O)N[C@H](C(=O)N[C@@H](CO)C(=O)N[C@H]1C(=O)N[C@@H](C)C(=O)N[C@H](C)C(=O)N[C@@H]([C@@H](C)CC)C(=O)O[C@H]1C)[C@@H](C)CC)[C@@H](C)CC [Compound 9, D-Ala10-teixobactin] (H-[dNMeF]IS[dQ][d(aIle)]IS[dT]A[dA]I; ester 8-C) | 32 μg mL^–1
CC[C@H](C)[C@H](NC(=O)[C@@H](Cc1ccccc1)NC)C(=O)N[C@@H](CO)C(=O)N[C@H](C)C(=O)N[C@@H](C(=O)N[C@H](C(=O)N[C@@H](CO)C(=O)N[C@H]1C(=O)N[C@@H](C)C(=O)N[C@@H](CCCNC(=N)N)C(=O)N[C@@H]([C@@H](C)CC)C(=O)O[C@H]1C)[C@@H](C)CC)[C@@H](C)CC [Compound 4, D-Ala4-Arg10-teixobactin] (H-[dNMeF]IS[dA][d(aIle)]IS[dT]ARI; ester 8-C) | 2–4 μg mL^–1
CC[C@H](C)[C@H](NC(=O)[C@H](NC(=O)[C@@H](CCC(N)=O)NC(=O)[C@H](CO)NC(=O)[C@H](C)NC(=O)[C@@H](Cc1ccccc1)NC)[C@@H](C)CC)C(=O)N[C@@H](CO)C(=O)N[C@H]1C(=O)N[C@@H](C)C(=O)N[C@@H](CCCNC(=N)N)C(=O)N[C@@H]([C@@H](C)CC)C(=O)O[C@H]1C [Compound 2, Ala2-Arg10-teixobactin] (H-[dNMeF]AS[dQ][d(aIle)]IS[dT]ARI; ester 8-C) | >128 μg mL^–1
CC[C@H](C)[C@H](NC(=O)[C@@H](C)NC(C)=O)C(=O)N[C@@H](CO)C(=O)N[C@H](CCC(N)=O)C(=O)N[C@@H](C(=O)N[C@H](C(=O)N[C@@H](CO)C(=O)N[C@H]1C(=O)N[C@@H](C)C(=O)N[C@@H](CCCNC(=N)N)C(=O)N[C@@H]([C@@H](C)CC)C(=O)O[C@H]1C)[C@@H](C)CC)[C@@H](C)CC [Compound 1, Ac-D-Ala1-Arg10-teixobactin] | >128 μg mL^–1
CC[C@H](C)[C@H](NC(=O)[C@@H](Cc1ccccc1)NC)C(=O)N[C@@H](CO)C(=O)N[C@H](CCC(N)=O)C(=O)N[C@@H](C(=O)N[C@H](C(=O)N[C@@H](CO)C(=O)N[C@H]1C(=O)N[C@@H](C)C(=O)N[C@@H](Cc2ccccc2)C(=O)N[C@@H]([C@@H](C)CC)C(=O)O[C@H]1C)[C@@H](C)CC)[C@@H](C)CC [Compound 15, Phe10-teixobactin] (H-[dNMeF]IS[dQ][d(aIle)]IS[dT]AFI; ester 8-C) | 2 μg mL^–1

Same assay, conditions: MRSA ATCC 33591; Mueller Hinton broth (Oxoid); peptides in DMSO containing 0.002% polysorbate 80; 37°C, 24 h; triplicate

Structure (SMILES) | MIC [μg mL^–1]
CC[C@H](C)[C@H](NC(=O)[C@@H](Cc1ccccc1)NC)C(=O)N[C@@H](CO)C(=O)N[C@H](CCC(N)=O)C(=O)N[C@@H](C(=O)N[C@H](C(=O)N[C@@H](CO)C(=O)N[C@H]1C(=O)N[C@@H](C)C(=O)N[C@@H](CO)C(=O)N[C@@H]([C@@H](C)CC)C(=O)O[C@H]1C)[C@@H](C)CC)[C@@H](C)CC [Compound 14, Ser10-teixobactin] (H-[dNMeF]IS[dQ][d(aIle)]IS[dT]ASI; ester 8-C) | 16

Same assay, conditions: from MIC against MRSA ATCC 33591

Structure (SMILES) | times lower antibacterial activity than Arg10-teixobactin [times]
CC[C@H](C)[C@H](NC(=O)[C@@H](Cc1ccccc1)NC)C(=O)N[C@@H](CO)C(=O)N[C@H](CCC(N)=O)C(=O)N[C@@H](C(=O)N[C@H](C(=O)N[C@@H](CO)C(=O)N[C@H]1C(=O)N[C@@H](C)C(=O)N[C@@H](CO)C(=O)N[C@@H]([C@@H](C)CC)C(=O)O[C@H]1C)[C@@H](C)CC)[C@@H](C)CC [Compound 14, Ser10-teixobactin] (H-[dNMeF]IS[dQ][d(aIle)]IS[dT]ASI; ester 8-C) | 8
CC[C@H](C)[C@H](NC(=O)[C@@H](Cc1ccccc1)NC)C(=O)N[C@@H](CO)C(=O)N[C@H](CCC(N)=O)C(=O)N[C@@H](C(=O)N[C@H](C(=O)N[C@@H](CO)C(=O)N[C@H]1C(=O)N[C@@H](C)C(=O)N[C@H](C)C(=O)N[C@@H]([C@@H](C)CC)C(=O)O[C@H]1C)[C@@H](C)CC)[C@@H](C)CC [Compound 9, D-Ala10-teixobactin] (H-[dNMeF]IS[dQ][d(aIle)]IS[dT]A[dA]I; ester 8-C) | 16
